Test results published in US20220387544A1, “NOVEL THERAPEUTIC USE” (Artios Pharma Limited, priority 2019, published 2022).
Entries after “also recorded” stand apart in the source; their conditions may differ.

Assays:
Format in all cases: cell-based
[1] = test system: DLD1 colon cancer cells; assay: CRISPR-Cas9 KO synthetic lethality screen; settings: compound at approximate EC20, 15 days, vs DMSO
Description: The CRISPR KO screen, sample preparation and data analysis were performed by Horizon Discovery using a CRISPR library against 1965 genes with 10 gRNA's per gene. DLD-1 colon cancer cells were grown in RPMI medium with 10% FBS, infected with the lentiviral library (each viral particle containing Cas9 and sgRNA), selected with puromycin for 2 weeks, and treated with compound B (EC17.1%) or DMSO for 15 days. Synthetic lethality scores were calculated by normalizing the sgRNA count from compound treated cells to DMSO treated control.
The synthetic lethal effect between Polθ inhibitor (Compound B) and knockout of any one of 1965 genes in DLD1 colon cancer cell line was assessed. A CRISPR KO screen was performed in DLD1 cells using compound B at an approximate EC20, using DMSO-exposed cells (the compound vehicle) as control. The quantity of cells containing each sgRNA was measured via next generation sequencing. (FIG. 5(a)) REV7 was in the Top 50 hits out of the […] genes screened, based on FDR score together with comparison to a validated synthetic lethal partner BRCA2. (b) Based on the log fold change, REV7 was in the top 25 hits. […] 7 out of 10 gRNA's were synthetic lethal with Polθ inhibition.

[2] = test system: parental and C20orf196 KO SUM149 tumouroids; assay: Tumouroid assay, parental vs C20orf196 KO SUM149
Description: (§1) Cells were seeded into a hydrogel containing 10% rat tail collagen (OcellO) in 384-well high content imaging microplates at varying densities to compensate for differential growth characteristics (Table 2).
(§2) 24 hours after seeding, test compounds and olaparib (Selleckchem) were added in an eight-point dose range with a one in three serial dilution (maximum concentration 12 μM for all compounds, except 30 μM compound A for REV7 KO cell experiments). Dimethyl sulfoxide (DMSO) and 1 μM staurosporine (Med Chem Express) treatments were included as negative and positive controls, respectively. All treatments were carried out in quadruplicate.
After seven or fourteen days of treatment for 20orf196 KO and REV7 KO experiments respectively, cells were fixed with 5× Fix & Stain solution (OcellO) for 16 hours at 4° C. to stain both the nuclei using Hoechst 33258 and the actin cytoskeleton using Rhodamine-Phalloidin. Cells were washed four times with phosphate-buffered saline (PBS), and plates were imaged and analysed using OcellO's three-dimensional image analysis software (Ominer). For each well, two channels of 16-bit image stacks were collected using an automated microscope system: Molecular Devices ImageXpress Micro XLS, equipped with a 4× magnification/0.2NA PlanApo objective. For each image slice (n=47), pixel size was 0.324 μm and step size in z-direction was 50 μm.
Parental or C20orf196 KO SUM149 cells were seeded into a collagen-containing hydrogel in 384-well plates and incubated overnight. The resulting tumouroids were treated with a serial dilution of Polθ inhibitor or olaparib for seven days, fixed, and stained to visualise DNA and F-actin. Plates were imaged, and tumouroid size was measured using OcellO's three-dimensional image analysis software.
(§3) Parental or C20orf196 KO SUM149 cells were seeded into a collagen-containing hydrogel in 384-well plates and incubated overnight. The resulting tumouroids were treated with a serial dilution of Polθ inhibitor or olaparib for seven days, fixed, and stained to visualise DNA and F-actin. Plates were imaged, and the number of nuclei per tumouroid was counted using OcellO's three-dimensional image analysis software.
as §3, with “with” for “with a serial dilution of”, “inhibitor, olaparib” for “inhibitor”, “control compound (at the concentrations indicated)” for “olaparib”, “fraction” for “number”, “without an associated actin cytoskeleton” for “per tumouroid”, “calculated” for “counted”

[3] = test system: SUM149 Parental and C20orf196 KO SUM149 cells; assay: Clonogenic survival assay (ICR), SUM149 C20ORF196 KO clones
Description: (§4) Clonogenic survival assays were performed as previously described (Edwards et al Nature (2008) 451, 1111-1115; Farmer et al Nature (2005) 434, 917-921). For measurement of sensitivity to Compound A inhibitor, exponentially growing cells were seeded in six-well plates at a concentration of 1000-2000 cells per well. For Compound A, cells were continuously exposed to the drug with media and drug replaced every 72 h. After 14 days, cells were fixed and stained with sulphorhodamine-B (Sigma) and colonies were counted. SFs were calculated and drug sensitivity curves plotted as previously described (Farmer et al Nature (2005) 434, 917-921).
(§5) Parental or C20orf196 KO SUM149 cells were seeded into 6 well plates and incubated overnight. The cells were then exposed to a serial dilution of Polθ inhibitor or olaparib for 14 days, fixed, and stained with sulphorhodamine B. The colonies in each well were counted and normalised survival data plotted to generate a dose-response curve, as described before.

[4] = test system: Parental and REV7 KO SUM149 cells; assay: Clonogenic survival assay (ICR), SUM149 REV7 KO clones; settings: REV7 KO clones vs parental SUM149, 14 days
Description: as §4
as §5, with “REV7” for “C20orf196”, “treated with” for “exposed to”, “curve.” for “curve, as described before.”

[5] = test system: parental and SHLD2 KO HCC1395 cells; assay: Colony formation assay, HCC1395; settings: SHLD2 KO vs parental HCC1395 cells, colony solubilisation protocol
Description: (§6) 1 mL of cells were seeded per well in a 24-well plate in triplicate and incubated overnight at 37° C. Cells were treated with a seven-point dose response curve with a one-in-three serial dilution of compound for the timepoints listed in Table 5. For MDA-MB-436 cells media was replenished every five days.
(§7) Cells were fixed with 70% ethanol for 20 minutes at room temperature with shaking. Cells were then stained with 0.04% Crystal Violet (Sigma Aldrich) for 20 minutes at room temperature with shaking. Cells were washed 6 times with water and air-dried overnight.
(§8) Plates were imaged using a Gelcount (Oxford Optronix), and colonies were counted using parameters optimized for each cell line. […] Colonies were solubilized using 10% acetic acid (VWR) for 30 minutes, absorbance at 595 nm was read using the Clariostar plate reader (BMG Labtech), and blank correction was applied. Relative Survival was calculated by normalization of compound treated wells to DMSO treated wells.
(§9) The effect of a DNA polymerase theta (Pole) inhibitor (Compound A) and the PARP inhibitor olaparib on the survival of parental and SHLD2 deleted (SHLD2 KO) HCC1395 cells was investigated by colony formation assay. Briefly, each population was seeded at low density, incubated with different concentrations of the compound and the relative survival normalized to untreated cells was measured with the colony solubilisation protocol.

[6] = test system: parental and REV7 KO 22Rv1 cells; assay: Colony formation assay, 22Rv1; settings: REV7 KO vs REV7 wild type parental 22Rv1 cells, 2 weeks
Description: as §6, §7
Plates were imaged using a Gelcount (Oxford Optronix), and colonies were counted using parameters optimized for each cell line. 22Rv1 viability curves were generated from the colony counts alone. MDA-MB-436 and […] viability curves were generated from solubilized colonies. Colonies were solubilized using 10% acetic acid (VWR) for 30 minutes, absorbance at 595 nm was read using the Clariostar plate reader (BMG Labtech), and blank correction was applied. Relative Survival was calculated by normalization of compound treated wells to DMSO treated wells.
The effect of a DNA polymerase theta (Polθ) inhibitor (Compound A) or the PARP inhibitor olaparib on the survival of parental (REV7 wild type) or REV7 deleted (REV7 KO) 22Rv1 cells was investigated in colony formation assays (CFA—see protocol above). […]

[7] = test system: Shieldin-defective, PARPi-resistant SUM149 cells; assay: Re-sensitisation to olaparib; settings: deletion of C20orf196 or 53BP1 or expression of BRCA1 in SUM149; olaparib 1 μM 10 days
Description: For measurement of re-sensitisation to Olaparib, exponentially growing cells were exposed to Compound A for 48 hours. After, cells were seeded in 96-well plates at a concentration of 1000-2000 cells per well. 24 hours post-seeding, Olaparib treatment was initiated and cells were continuously exposed to the drug with media and drug replenished every 72 hours. After 10 days, cell viability was estimated using Cell-Titre Glo (Promega). SFs were calculated and drug sensitivity curves plotted as previously described (Farmer et al Nature (2005) 434, 917-921).
Briefly, parental SUM149 cells or derivatives with either BRCA1 restored or with genetic deletion of either C20orf196 or 53BP1 were treated with Compound A in a tissue culture flask for 48 hours. The cells were then washed before seeding at low density in 96 well plates. 24 hours post seeding, cells were incubated with either olaparib or DMSO for a further 10 days. The relative survival normalised to untreated cells was measured using Cell-Titre Glo.

[8] = test system: parental and REV7 KO SUM149 tumouroids; assay: Tumouroid assay, parental vs REV7 KO SUM149; settings: fourteen days treatment
Description: as §1, §2
After seven or fourteen days of treatment for 20orf196 KO and REV7 KO experiments respectively, cells were fixed with 5× Fix & Stain solution (OcellO) for 16 hours at 4° C. to stain both the nuclei using Hoechst 33258 and the actin cytoskeleton using Rhodamine-Phalloidin. Cells were washed four times with phosphate-buffered saline (PBS), and plates were imaged and analysed using OcellO's three-dimensional image analysis software (Ominer). […]
Parental or REV7 KO SUM149 cells were seeded into a collagen-containing hydrogel in 384-well plates and incubated overnight. […] Plates were imaged, and the fraction of nuclei without an associated actin cytoskeleton was calculated using OcellO's three-dimensional image analysis software.

[9] = test system: parental and SHLD2 KO MDA-MB-436 cells; assay: Colony formation assay, MDA-MB-436; settings: SHLD2 KO vs parental MDA-MB-436 cells, colony solubilization protocol
Description: as §6, §7, §8
as §9, with “(Polθ)” for “(Pole)”, “MDA-MB-436” for “HCC1395”, “solubilization” for “solubilisation”

[10] = in C20orf196 KO cells when compared with olaparib
[11] = C20orf196 KO vs parental SUM149 tumouroids, seven days treatment

SMILES | REV7 gRNA's synthetic lethal with Polθ inhibition, out of 10 [1] | position of REV7 among hits based on log fold change [1] | cell death [2, 10] | reduction in the number of nuclei per tumoroid [2, 10] | reduction in tumoroid size [2, 10] | sensitivity by reduction in number of colonies ([3]; C20orf196 KO clones vs parental SUM149, 14 days) | sensitivity of parental SUM149 cells ([3]; parental SUM149 (BRCA1 mutation), 14 days) | sensitivity by reduction in number of colonies [4] | sensitivity by relative survival [5] | sensitivity by relative survival (colonies) [6] | cell death (fraction of dead cells) ([2]; C20orf196 KO vs parental SUM149 tumouroid cultures, seven days treatment) | sensitivity by reduction in number of nuclei per tumouroid [2, 11] | sensitivity by reduction in tumouroid size [2, 11] | resistance to olaparib [7] | cell death (fraction of dead cells) [8] | sensitivity by relative survival [9]
Cc1cccc(N(C)C(=O)[C@@H]2C[C@H](O)CN2c2nc(C)cc(C(F)(F)F)c2C#N)c1 [Compound B, (2S,4S)-1-(3-cyano-6-methyl-4-(trifluoromethyl)pyridin-2-yl)-4-hydroxy-N-methyl-N-(m-tolyl)pyrrolidine-2-carboxamide] | 7 | ≤ 25 | significantly more cell death | greater reduction in the number of nuclei per tumoroid | greater reduction in tumoroid size |  |  |  |  |  |  |  |  |  |  | 
O=C(c1cc(Cc2n[nH]c(=O)c3ccccc23)ccc1F)N1CCN(C(=O)C2CC2)CC1 [olaparib, reference compound] |  |  |  |  |  | more resistant | hypersensitive | resistance; also recorded: more resistant | significantly more resistant | still retain resistance | significantly less cell death | less sensitive | less sensitive | induces resistance; also recorded: marked resistance | less cell death | trend for increased resistance
